# Assay results: patent US8114583B2, “Switch-region: target and method for inhibition of bacterial RNA polymerase” (priority 2005, dated 2012)
# Values joined by “and” are separate entries in the source; they are usually repeats but may differ in a detail not shown here. Identical values can stand only once. Like-named read-outs stand apart in the source and are kept apart here.
# Key:
# [1] = tested on: Escherichia coli with substitutions in RNAP β′ subunit (rpoC) or β subunit (rpoB); experiment: MIC ratio (MIC mutant/MIC wild-type) of resistant rpoC/rpoB mutants; assay type: cell-based
# Source text: To identify determinants for function of Myx, Applicant has performed random mutagenesis of genes encoding Escherichia coli RNAP β′ subunit (rpoC) and β subunit (rpoB), and has isolated and sequenced five independent Myx-resistant mutants (methods as described in Mukhopadhyay, et al. (2004) Mol. Cell. 14, 739-751).
# To further define determinants for function of Myx, Applicant has performed saturation mutagenesis of genes encoding Escherichia coli RNAP β′ subunit (rpoC) and β subunit (rpoB), and has isolated and sequenced more than 100 independent Myx-resistant mutants (methods as described in Mukhopadhyay, et al. (2004) Mol. Cell. 14, 739-751; Tuske, et al. […] Cell 122, 541-552). Saturation mutagenesis was performed using a set of “doped” oligodeoxyribonucleotide primers targeting all codons for residues located within 30 Å of β′ residue 345 and β residues 1275 and 1292 in the three-dimensional structure of bacterial RNAP (primer sequences in Table 2). […]
# [2] = tested on: Corynebacterium mediolanum; settings: cited from earlier work
# [3] = tested on: Escherichia coli DH21tolC; settings: cited from earlier work
# [4] = tested on: B. megaterium; settings: cited from earlier work
# [5] = target: bacterial RNAP (Escherichia coli, UniProt P0A8T7+P0A8V2); settings: read-out: Ki, inhibition of bacterial RNAP; cited from earlier work
# [6] = tested on: Micrococcus luteus; settings: cited from earlier work
# [7] = tested on: Escherichia coli DH21tolC; experiment: bacteriocidal activity; assay type: cell-based; settings: unpublished data
# [8] = tested on: eukaryotic RNAP II; settings: cited from earlier work
# [9] = tested on: Bacillus subtilis; settings: cited from earlier work
# [10] = target: Escherichia coli RNAP (Escherichia coli, UniProt P0A8T7+P0A8V2); assay type: biochemical
# Source text: (A) DNA construct SEQ ID NO:133. (B) Data.
# (A) DNA construct SEQ ID NO:134. (B) Data.
# Applicant has performed transcription and DNA-binding experiments in order to define the basic mechanism of transcription inhibition by Myx (methods as in Mukhopadhyay, et al. (2004) Mol. Cell. 14, 739-751).
# Applicant has performed DNA binding experiments with a series of subfragments of promoter DNA in order to map the interaction of RNAP with promoter DNA inhibited by Myx (methods as in Mukhopadhyay, et al. (2004) Mol. Cell. 14, 739-751). […] This DNA segment corresponds, precisely, to the DNA segment proposed to bind within the RNAP active-center cleft, and to be affected by clamp opening and closing, in structural models of transcription initiation complexes (see Ebright (2000) J. Mol. Biol. 304, 687-698; Murakami, et al. (2003) Curr. Opin. Stuct. Biol. 12, 89-97; Borukhov & Nudler (2003) Curr. Opin. Microbiol. 6, 93-100; Murakami, et al. (2002) Science 296, 1285-1290; Naryshkin, et al. (2000) Cell 101, 601-611; Mekler, et al. (2002) Cell 108, 599-614).
# [11] = tested on: Enterobacter cloacae; settings: cited from earlier work
# [12] = tested on: Pseudomonas aeruginosa; settings: cited from earlier work
# [13] = target: wild-type Escherichia coli RNAP and [Arg345]β′-RNAP (Escherichia coli, UniProt P0A8T7+P0A8V2, K345R); settings: [Arg345]β′-RNAP versus wild-type RNAP; FIG. 7
# [14] = tested on: Enterococcus faecium; settings: cited from earlier work
# [15] = target: T. thermophilus RNAP holoenzyme (Thermus thermophilus, UniProt Q8RQE8+Q8RQE9); experiment: inhibition of T. thermophilus RNAP holoenzyme; assay type: biochemical; settings: unpublished data; read-out: K, inhibition of T. thermophilus RNAP holoenzyme
# [16] = tested on: Mycobacterium smegmatis; settings: cited from earlier work
# [17] = tested on: mice; settings: at concentrations up to 100 mg/kg; cited from earlier work
# [18] = tested on: Staphylococcus aureus; settings: cited from earlier work
structure (smiles),measurement,setting,value
"C/C=C/C/C=C(\C)C(O)CC/C(C)=C/C=C(\C)C(=O)c1c(O)cc([C@H](C)CC/C=C/NC(=O)OC)oc1=O (some centres unmarked) [Cor, corallopyronin]","MIC ratio (MIC, mutant/MIC, wild-type)",[1]; rpoB 1255 Thr→Ile,4
same,"MIC ratio (MIC, mutant/MIC, wild-type)",[1]; rpoB 1275 Val→Met,>8
same,"MIC ratio (MIC, mutant/MIC, wild-type)",[1]; rpoB 1275 Val→Phe,>8
same,"MIC ratio (MIC, mutant/MIC, wild-type)",[1]; rpoB 1278 Leu→Val,4
same,"MIC ratio (MIC, mutant/MIC, wild-type)",[1]; rpoB 1279 Glu→Gly,4
same,"MIC ratio (MIC, mutant/MIC, wild-type)",[1]; rpoB 1279 Glu→Lys,8
same,"MIC ratio (MIC, mutant/MIC, wild-type)",[1]; rpoB 1283 Ala→Val,4
same,"MIC ratio (MIC, mutant/MIC, wild-type)",[1]; rpoB 1285 Tyr→Asp,1
same,"MIC ratio (MIC, mutant/MIC, wild-type)",[1]; rpoB 1291 Leu→Phe,1
same,"MIC ratio (MIC, mutant/MIC, wild-type)",[1]; rpoB 1298 Val→Leu,2
same,"MIC ratio (MIC, mutant/MIC, wild-type)",[1]; rpoB 1315 Met→Leu,2
same,"MIC ratio (MIC, mutant/MIC, wild-type)",[1]; rpoB 1317 Pro→Leu,2
same,"MIC ratio (MIC, mutant/MIC, wild-type)",[1]; rpoB 1320 Pro→Ala,4
same,"MIC ratio (MIC, mutant/MIC, wild-type)",[1]; rpoB 1322 Ser→Pro,4
same,"MIC ratio (MIC, mutant/MIC, wild-type)",[1]; rpoB 1322 Ser→Thr,4
same,"MIC ratio (MIC, mutant/MIC, wild-type)",[1]; rpoB 1322 Ser→Tyr,4
same,"MIC ratio (MIC, mutant/MIC, wild-type)",[1]; rpoB 1322 Ser→Val,8
same,"MIC ratio (MIC, mutant/MIC, wild-type)",[1]; rpoB 1325 Val→Leu,4
same,"MIC ratio (MIC, mutant/MIC, wild-type)",[1]; rpoB 1326 Leu→Trp,>8
same,"MIC ratio (MIC, mutant/MIC, wild-type)",[1]; rpoC 345 Lys→Arg,>8
same,"MIC ratio (MIC, mutant/MIC, wild-type)",[1]; rpoC 345 Lys→Asn,8
same,"MIC ratio (MIC, mutant/MIC, wild-type)",[1]; rpoC 345 Lys→Thr,8
same,"MIC ratio (MIC, mutant/MIC, wild-type)",[1]; rpoC 1346 Gly→Asp,4
same,"MIC ratio (MIC, mutant/MIC, wild-type)",[1]; rpoC 1351 Val→Phe,>8
same,"MIC ratio (MIC, mutant/MIC, wild-type)",[1]; rpoC 1352 Ile→Asn,4
same,"MIC ratio (MIC, mutant/MIC, wild-type)",[1]; rpoC 1352 Ile→Ser,4
same,"MIC ratio (MIC, mutant/MIC, wild-type)",[1]; rpoC 1354 Gly→Cys,2
same,MIC,[2],≤ 10 µg/mL
same,MIC,[3],≤ 10 µg/mL
same,MIC,[4],≤ 10 µg/mL
same,Ki,[5],4000 nM
same,MIC,[6],≤ 10 µg/mL
same,bacteriocidal or not,[7],bacteriocidal
same,inhibition of eukaryotic RNAP II,[8],does not inhibit
same,MIC,[9],≤ 10 µg/mL
same,"effects on transcription, promoter binding, and promoter-subfragment binding",[10],same mechanism as Myx
"CCC/C(C)=C/C=C(\C)C(=O)c1c(O)cc([C@H](C)CC/C=C/NC(=O)OC)oc1=O [Myx, myxopyronin]","MIC ratio (MIC, mutant/MIC, wild-type)",[1]; rpoB 1255 Thr→Ile,2
same,"MIC ratio (MIC, mutant/MIC, wild-type)",[1]; rpoB 1275 Val→Met,>32
same,"MIC ratio (MIC, mutant/MIC, wild-type)",[1]; rpoB 1275 Val→Phe,>32
same,"MIC ratio (MIC, mutant/MIC, wild-type)",[1]; rpoB 1278 Leu→Val,2
same,"MIC ratio (MIC, mutant/MIC, wild-type)",[1]; rpoB 1279 Glu→Gly,32
same,"MIC ratio (MIC, mutant/MIC, wild-type)",[1]; rpoB 1279 Glu→Lys,>32
same,"MIC ratio (MIC, mutant/MIC, wild-type)",[1]; rpoB 1283 Ala→Val,2
same,"MIC ratio (MIC, mutant/MIC, wild-type)",[1]; rpoB 1285 Tyr→Asp,2
same,"MIC ratio (MIC, mutant/MIC, wild-type)",[1]; rpoB 1291 Leu→Phe,2
same,"MIC ratio (MIC, mutant/MIC, wild-type)",[1]; rpoB 1298 Val→Leu,4 and 2
same,"MIC ratio (MIC, mutant/MIC, wild-type)",[1]; rpoB 1315 Met→Leu,2
same,"MIC ratio (MIC, mutant/MIC, wild-type)",[1]; rpoB 1317 Pro→Leu,2
same,"MIC ratio (MIC, mutant/MIC, wild-type)",[1]; rpoB 1320 Pro→Ala,2
same,"MIC ratio (MIC, mutant/MIC, wild-type)",[1]; rpoB 1322 Ser→Pro,32
same,"MIC ratio (MIC, mutant/MIC, wild-type)",[1]; rpoB 1322 Ser→Thr,2
same,"MIC ratio (MIC, mutant/MIC, wild-type)",[1]; rpoB 1322 Ser→Tyr,2
same,"MIC ratio (MIC, mutant/MIC, wild-type)",[1]; rpoB 1322 Ser→Val,16
same,"MIC ratio (MIC, mutant/MIC, wild-type)",[1]; rpoB 1325 Val→Leu,2
same,"MIC ratio (MIC, mutant/MIC, wild-type)",[1]; rpoB 1326 Leu→Trp,1
same,"MIC ratio (MIC, mutant/MIC, wild-type)",[1]; rpoC 345 Lys→Arg,>32
same,"MIC ratio (MIC, mutant/MIC, wild-type)",[1]; rpoC 345 Lys→Asn,32
same,"MIC ratio (MIC, mutant/MIC, wild-type)",[1]; rpoC 345 Lys→Thr,32
same,"MIC ratio (MIC, mutant/MIC, wild-type)",[1]; rpoC 1346 Gly→Asp,1
same,"MIC ratio (MIC, mutant/MIC, wild-type)",[1]; rpoC 1351 Val→Phe,>32
same,"MIC ratio (MIC, mutant/MIC, wild-type)",[1]; rpoC 1352 Ile→Asn,2
same,"MIC ratio (MIC, mutant/MIC, wild-type)",[1]; rpoC 1352 Ile→Ser,2
same,"MIC ratio (MIC, mutant/MIC, wild-type)",[1]; rpoC 1354 Gly→Cys,2
same,MIC,[2],≤ 10 µg/mL
same,MIC,[11],≤ 10 µg/mL
same,MIC,[4],≤ 10 µg/mL
same,Ki,[5],1000 nM
same,MIC,[6],≤ 10 µg/mL
same,bacteriocidal or not,[7],bacteriocidal
same,MIC,[12],≤ 10 µg/mL
same,effect of substitution within the switch-region sequence on binding of Myx to RNAP,[13],reduces binding
same,MIC,[14],≤ 10 µg/mL
same,inhibition of eukaryotic RNAP II,[8],does not inhibit
same,MIC,[9],≤ 10 µg/mL
same,interaction of RNAP with promoter DNA,[10],preventing stable interaction
same,interaction of RNAP with promoter DNA segment comprising positions −40 to −12,[10],does not inhibit
same,interaction of RNAP with segment of promoter DNA comprising positions −11 to +15,[10],inhibits
same,Ki,[15],20 µM
same,MIC,[16],≤ 10 µg/mL
same,acute toxicity in mice,[17],no acute toxicity
"C/C(=C\Cc1ccccc1)CCC(=O)C[C@H]1C[C@H](O)C/C(C)=C/C/C=C/C/C(CC(=O)O)=C\C(=O)O1 [Rip, ripostatin]","MIC ratio (MIC, mutant/MIC, wild-type)",[1]; rpoB 1255 Thr→Ile,4
same,"MIC ratio (MIC, mutant/MIC, wild-type)",[1]; rpoB 1275 Val→Met,8
same,"MIC ratio (MIC, mutant/MIC, wild-type)",[1]; rpoB 1275 Val→Phe,>16
same,"MIC ratio (MIC, mutant/MIC, wild-type)",[1]; rpoB 1278 Leu→Val,>16
same,"MIC ratio (MIC, mutant/MIC, wild-type)",[1]; rpoB 1279 Glu→Gly,>16
same,"MIC ratio (MIC, mutant/MIC, wild-type)",[1]; rpoB 1279 Glu→Lys,4
same,"MIC ratio (MIC, mutant/MIC, wild-type)",[1]; rpoB 1283 Ala→Val,4
same,"MIC ratio (MIC, mutant/MIC, wild-type)",[1]; rpoB 1285 Tyr→Asp,4
same,"MIC ratio (MIC, mutant/MIC, wild-type)",[1]; rpoB 1291 Leu→Phe,4
same,"MIC ratio (MIC, mutant/MIC, wild-type)",[1]; rpoB 1298 Val→Leu,4
same,"MIC ratio (MIC, mutant/MIC, wild-type)",[1]; rpoB 1315 Met→Leu,4
same,"MIC ratio (MIC, mutant/MIC, wild-type)",[1]; rpoB 1317 Pro→Leu,2
same,"MIC ratio (MIC, mutant/MIC, wild-type)",[1]; rpoB 1320 Pro→Ala,4
same,"MIC ratio (MIC, mutant/MIC, wild-type)",[1]; rpoB 1322 Ser→Pro,>16
same,"MIC ratio (MIC, mutant/MIC, wild-type)",[1]; rpoB 1322 Ser→Thr,4
same,"MIC ratio (MIC, mutant/MIC, wild-type)",[1]; rpoB 1322 Ser→Tyr,2
same,"MIC ratio (MIC, mutant/MIC, wild-type)",[1]; rpoB 1322 Ser→Val,>16
same,"MIC ratio (MIC, mutant/MIC, wild-type)",[1]; rpoB 1325 Val→Leu,4
same,"MIC ratio (MIC, mutant/MIC, wild-type)",[1]; rpoB 1326 Leu→Trp,>16
same,"MIC ratio (MIC, mutant/MIC, wild-type)",[1]; rpoC 345 Lys→Arg,>16
same,"MIC ratio (MIC, mutant/MIC, wild-type)",[1]; rpoC 345 Lys→Asn,8
same,"MIC ratio (MIC, mutant/MIC, wild-type)",[1]; rpoC 345 Lys→Thr,>16
same,"MIC ratio (MIC, mutant/MIC, wild-type)",[1]; rpoC 1346 Gly→Asp,4
same,"MIC ratio (MIC, mutant/MIC, wild-type)",[1]; rpoC 1351 Val→Phe,>16
same,"MIC ratio (MIC, mutant/MIC, wild-type)",[1]; rpoC 1352 Ile→Asn,>16
same,"MIC ratio (MIC, mutant/MIC, wild-type)",[1]; rpoC 1352 Ile→Ser,>16
same,"MIC ratio (MIC, mutant/MIC, wild-type)",[1]; rpoC 1354 Gly→Cys,4
same,MIC,[3],≤ 1 µg/mL
same,MIC,[18],≤ 1 µg/mL
same,Ki,[5],300 nM
same,bacteriocidal or not,[7],bacteriocidal
same,inhibition of eukaryotic RNAP II,[8],does not inhibit
same,"effects on transcription, promoter binding, and promoter-subfragment binding",[10]; results not shown,same mechanism as Myx
